What was measured:
[1] = system: heart tissue section of a myocarditis model rat; experiment: In vitro autoradiography using myocarditis model rat (Example 7); format: binding
[2] = system: heart tissue section of an ischemic heart disease model rat; experiment: In vitro autoradiography using ischemic heart disease model rat (Example 10); format: binding; conditions: ischemic heart disease model rat one week after operation, approximately 10 kBq/mL, FIG. 14
Protocol: (§1) The chest of each Wistar rat (male) was opened under isoflurane anesthesia, and the left coronary artery was ligated for 30 minutes, followed by reperfusion. The chest was closed to prepare an ischemic heart disease model rat. Approximately 1 week after the operation, the rat was sacrificed under anesthesia, and the heart was taken out thereof. Sections of 5 μm in thickness were prepared from the base side of the heart. Immunostaining was carried out using the prepared sections to confirm the expression and distribution of CPY11B2. As an anti-CYP11B2 antibody, one prepared according to the method described in Ogishima T et al., Endocrinology, 1992, vol. 130, pp. 2971-7 was used. As a secondary antibody, HRP Labelled Polymer Anti-Rabbit (manufactured by Dako/Agilent Technologies, Inc.) was used. CYP11B2 expression sites were detected by applying DAB+(3,3′-diaminobenzidine tetrahydrochloride) substrate kit (manufactured by Dako/Agilent Technologies, Inc.) to the HRP bound to the secondary antibody.
Each ischemic heart disease model rat was prepared in the same way as in Example 1. The rat was sacrificed under isoflurane anesthesia in one week after the operation. […] 3 (radioactivity concentration: approximately 10 kBq/mL) was prepared, and the hydrophilized sections were immersed therein at room temperature for 30 minutes. […]

[3] = system: heart tissue section of a hypertensive heart disease model rat; experiment: In vitro autoradiography using hypertensive heart disease model rat (Example 9); format: binding
Protocol: Each DIS/Eis (Dahl-Iwai S) rat (male, Japan SLC, Inc.) was fed with 8% NaCl diet (Oriental Yeast Co., Ltd.) from the age of 5 weeks, raised up to the age of 11 weeks, and then sacrificed under anesthesia, and the heart was taken out thereof. Sections of 5 μm in thickness were prepared. Immunostaining was carried out using the prepared sections to confirm the expression and distribution of CPY11B2. As an anti-CYP11B2 antibody, one prepared according to the method described in Ogishima T et al., Endocrinology, 1992, vol. 130, pp. 2971-7 was used. As a secondary antibody, HRP Labelled Polymer Anti-Rabbit (manufactured by Dako/Agilent Technologies, Inc.) was used. CYP11B2 expression sites were detected by applying DAB+(3,3′-diaminobenzidine tetrahydrochloride) substrate kit (manufactured by Dako/Agilent Technologies, Inc.) to the HRP bound to the secondary antibody. The same experiment as above was conducted using the heart harvested from a DIS/Eis rat raised with a NaCl-free diet (normal rat).
Each hypertensive heart disease model rat was prepared in the same way as in Example 8. The heart was harvested, and 5 μm-thick sections were prepared and preserved at −80° C. until they were used. […] 3 (radioactivity concentration: approximately 10 kBq/mL) was prepared, and the hydrophilized sections were immersed therein at room temperature for 30 minutes. […]

[4] = system: ischemic heart disease model rat; experiment: Ex vivo autoradiography using ischemic heart disease model rat (Example 2); format: in vivo
Protocol: as §1
Each ischemic heart disease model rat was prepared in the same way as in Example 1. Compound [^18F] 1 was administered thereto (approximately 50 MBq/rat) between 1 and 3 weeks after the operation. 20 minutes after the administration, the rat was sacrificed under anesthesia, and the heart was taken out thereof. […]

[5] = system: heart tissue section of an ischemic heart disease model rat; experiment: In vitro autoradiography using ischemic heart disease model rat (Example 3); format: binding; conditions: for accumulation in the presence of an excessive amount of non-labeled compound (binding specificity): 5 μmol/L non-labeled compound (Compound 1 or Compound 2) added, FIG. 4(e)-(h) / FIG. 5(c),(d); for ratio of ischemia reperfusion site signal intensity/non-ischemic site signal intensity: ROI on autoradiograms, n=4, FIG. 7; for accumulation in lesion region on in vitro autoradiogram: sections immersed in labeled compound solution 30 minutes at room temperature, FIG. 4 / FIG. 5
Protocol: as §1
Each ischemic heart disease model rat was prepared in the same way as in Example 1. The rat was sacrificed under isoflurane anesthesia between 1 and 3 weeks after the operation. Then, the heart was harvested, and 5 μm sections were prepared and preserved at −80° C. until they were used. The sections were brought back to room temperature from −80° C., dried for 30 minutes or longer, then immersed in phosphate-buffered saline for 30 minutes, and subsequently immersed in phosphate-buffered saline containing 1 w/v % bovine serum albumin for 30 minutes for hydrophilization. Each phosphate-buffered saline containing 1 w/v % bovine serum albumin and further containing Compound [^18F] 1 (radioactivity concentration: approximately 40 kBq/mL) or Compound [^123I] 2 (radioactivity concentration: approximately 10 kBq/mL) was prepared, and the hydrophilized sections were immersed therein at room temperature for 30 minutes. Then, the sections were washed by immersing for 5 minutes each in phosphate-buffered saline containing 1 w/v % bovine serum albumin, phosphate-buffered saline, and phosphate-buffered saline. The sections thus washed were thoroughly dried and then exposed to light for approximately 3 hours as to Compound [^18F] 1 and for approximately 16 hours as to Compound [^123I] 2 on an imaging plate (BAS-SR2040, manufactured by Fujifilm Corp.). Autoradiograms were obtained using a fluoro image analyzer (FLA-7000, manufactured by GE Healthcare Corp.).
Also, autoradiograms were obtained by immersing the sections in a solution containing Compound [^18F] 1 together with 5 μmol/L of Compound 1, or a solution containing Compound [^123I] 2 together with 5 μmol/L of Compound 2 in the same way as above.
The same experiment as above was conducted using the heart harvested from a normal rat.
ROI was established at an ischemia reperfusion site and a non-ischemic site as to the autoradiography of Compound [^18F] 1 and Compound [^123I] 2, and the ratio of signal intensity was compared between these sites. FIG. 7(a) is one example of an autoradiogram of the section immersed in Compound [^18F] 1. FIG. 7(c) is one example of an autoradiogram of the section immersed in Compound [^123I] 2. In both FIGS. 7(a) and 7(c), ROI of the ischemia reperfusion site is surrounded with the solid line, and ROI of the non-ischemic site is surrounded with the broken line. […] 1 in each rat. […] 2 in each rat. […] 1 and Compound [^123I] 2 at the ischemia reperfusion site compared with the non-ischemic site was observed. Higher accumulation of Compound [^123I] 2 than that of Compound [^18F] 1 was also observed.

[6] = system: ischemic heart disease model rat; experiment: SPECT imaging experiment using ischemic heart disease model rat (Example 5); format: in vivo; conditions: approximately 100 MBq/rat, one week after operation, static imaging started 150 minutes after administration, FIG. 9(d)-(f)
Protocol: as §1
Each ischemic heart disease model rat was prepared in the same way as in Example 1. Compound [^123I] 2 was administered thereto (approximately 100 MBq/rat) in one week after the operation. Static imaging for approximately 8 minutes was started at 150 minutes after the administration using a SPECT apparatus for animals (FX3000, manufactured by TriFoil Imaging). […]

[7] = system: heart tissue section of an ischemic heart disease model rat; experiment: Influence of elapsed time after ischemic heart disease model rat preparation on compound accumulation, in vitro autoradiography (Example 4); format: binding; conditions: normal rat and 1 day, 3 days, 1 week after the operation, FIG. 8(a)
Protocol: as §1
Each ischemic heart disease model rat was prepared in the same way as in Example 1. The rat was sacrificed under isoflurane anesthesia 1 day (3 rats), 3 days (4 rats) or 1 week (4 rats) after the operation. […] 2 (radioactivity concentration: approximately 10 kBq/mL) was prepared, and the hydrophilized sections were immersed therein at room temperature for 30 minutes. […]

normal rat = experiment: SPECT imaging experiment using normal rat (Example 5); format: in vivo; conditions: approximately 100 MBq/rat, imaging started 150 minutes after administration, FIG. 9(a)-(c)
Protocol: Each ischemic heart disease model rat was prepared in the same way as in Example 1. Compound [^123I] 2 was administered thereto (approximately 100 MBq/rat) in one week after the operation. Static imaging for approximately 8 minutes was started at 150 minutes after the administration using a SPECT apparatus for animals (FX3000, manufactured by TriFoil Imaging). Data collection was carried out in an energy window of 143 to 175 keV, and the collected data was reconstituted by OSEM (Ordered Subset Expectation Maximization) to obtain images. Computed tomography imaging was carried out in order to identify the position of the heart. The same experiment as above was conducted using a normal rat.

Row | SMILES | agreement of accumulation with fibrosis region ([1]; Masson trichrome staining of adjacent section, FIG. 11) | accumulation in heart tissue section compared with normal rat ([1]; approximately 10 kBq/mL, FIG. 11(a),(b)) | accumulation in lesion region compared with normal rat [2] | agreement of accumulation with fibrosis region ([3]; Masson trichrome staining of adjacent section, FIG. 13) | accumulation in heart tissue section compared with normal rat ([3]; approximately 10 kBq/mL, FIG. 13(a),(b)) | staining findings at the position corresponding to the accumulation site ([4]; HE, Masson trichrome and CYP11B2 immunostaining of adjacent section, FIG. 3) | accumulation in the heart on ex vivo autoradiogram ([4]; approximately 50 MBq/rat, 1 to 3 weeks after operation, heart taken 20 minutes after administration, FIG. 2) | accumulation in the presence of an excessive amount of non-labeled compound (binding specificity) [5] | ratio of ischemia reperfusion site signal intensity/non-ischemic site signal intensity [5] | accumulation in lesion region on in vitro autoradiogram [5] | accumulation in the heart on SPECT image [6] | ratio of ischemia reperfusion site signal intensity/non-ischemic site signal intensity with elapsed time [7] | agreement of accumulation with fibrosis region ([5]; Masson trichrome staining of the same section, FIG. 6) | accumulation compared between the two labeled compounds ([5]; signal intensity ratio, FIG. 7(b) versus 7(d)) | accumulation in the heart on SPECT image (normal rat)
1 | Cn1c(-c2cncc(Cn3ccnc3)c2)nc2ccc([123I])cc21 [Compound [^123I] 3, 2-[5-{(1H-imidazol-1-yl)methyl}pyridin-3-yl]-6-[^123I]iodo-1-methyl-1H-benz[d]imidazole] | in good agreement with a fibrosis region | increased accumulation | increased accumulation | in good agreement with a fibrosis region | increased accumulation | – | – | – | – | – | – | – | – | – | –
2 | Fc1cc2nc(-c3cncc(Cn4ccnc4)c3)n(CC[18F])c2cc1Cl [Compound [^18F] 1, 6-chloro-5-fluoro-1-(2-[^18F]fluoroethyl)-2-[5-(imidazol-1-ylmethyl)pyridin-3-yl]benzimidazole] | – | – | – | – | – | inflammatory reaction, fibrosis, and CYP11B2 expression were also confirmed at a position corresponding to the accumulation site | local accumulation of Compound [^18F] 1 was confirmed | inhibited by the addition of an excessive amount of a non-labeled compound, suggesting that the binding is specific | increased accumulation | accumulation of Compound [^18F] 1 in a lesion region was confirmed | – | – | – | – | –
3 | FCCn1c(-c2cncc(Cn3ccnc3)c2)nc2ccc([123I])cc21 [Compound [^123I] 2, 1-(2-fluoroethyl)-2-[5-{(imidazol-1-yl)methyl}pyridin-3-yl]-6-[^123I]iodobenzimidazole] | – | – | – | – | – | – | – | inhibited by the addition of an excessive amount of a non-labeled compound, suggesting that the binding is specific | increased accumulation | accumulation of Compound [^123I] 2 in a lesion region was confirmed | confirmed in the heart of the ischemic heart disease model rat | increased with elapsed time after the operation | in good agreement with a fibrosis region | Higher accumulation of Compound [^123I] 2 than that of Compound [^18F] 1 | not observed in the heart of the normal rat
